# Source: US20240368174A1, “Antiviral Heterocyclic Compounds” (Enanta Pharmaceuticals, Inc., priority 2023, published 2024)
# System: HMPV clinical isolate A2 strain TN 94-49
# Assay: HMPV antiviral assay, Method 2 (LLC-MK2 cells with CP-100-356, ATP-Lite)
# Assay type: cell-based
# Settings: human metapneumovirus, 168 h; hMPV A2 TN/94-49, LLC-MK2 cells with 4 μM CP-100-356, 7 days, ATP-Lite
# How it was run: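 LLC-MK2 rhesus kidney cells (5,000/well) infected in suspension with HMPV A2 TN 94-49 at MOI 0.16, in serum-free medium with final 2 μg/mL TPCK-trypsin and 2 μM CP-100-356. Compounds tested in duplicate from 200 nM, 2.5-fold, 10 points; 7 days at 37 °C. Cell health by ATP-Lite luminescence; EC50 by four-parameter fit.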
row,EC50 [nM],SMILES
1,< 200,COc1cc(C(=O)NC[C@@](O)(c2ccccc2)c2cc3c(c(-c4ccnc(C)c4Cl)n2)OC[C@]3(C)C(N)=O)cc2oc(C3CC3)nc12 [Example 695]
2,< 200,COc1cc(C(=O)NC[C@@](O)(c2ccccc2)c2cc3c(c(-c4ccnc(C)c4Cl)n2)OC[C@]3(C)C(N)=O)cc2cn(C3(F)CC3)nc12 [Example 693]
3,< 200,COc1cc(C(=O)NC[C@](O)(c2cc3c(c(-c4ccnc(C(F)(F)F)c4)n2)OC[C@]3(C)C(N)=O)C2CC2)cc2cn(C3(F)CC3)nc12 [Example 761]
4,< 200,COc1nccc(-c2nc([C@@](O)(CNC(=O)c3cc(OC)c4nc(C)c(Cl)cc4c3)c3cccc(F)c3)cc3c2OC[C@]3(C)C(N)=O)c1Cl [Example 659]
5,< 200,C[C@]1(C(N)=O)COc2c1cc([C@@](O)(CNC(=O)c1cc(OC3CC3)c3nn(C4(F)CC4)cc3c1)C1CC1)nc2-n1ncc2c(F)cccc21 [Example 651]
6,< 200,COc1cc(C(=O)NC[C@@](O)(c2ccc(F)cc2)c2cc3c(c(-c4ccnc(C)c4Cl)n2)OC[C@]3(C)C(N)=O)cc2cn(C3CC3)nc12 [Example 646]
7,> 200,COc1nccc(-c2nc([C@@](O)(CNC(=O)c3cc(OC)c4nc(C5CC5)cn4c3)C(C)C)cc3c2OC[C@]3(C)C(N)=O)c1Cl [Example 891]
8,< 200,COc1cc(C(=O)NC[C@](O)(c2cc3c(c(-c4cccc(F)c4Cl)n2)OC[C@]3(C)C(N)=O)C2(F)CC2)cc2cn(C3CC3)nc12 [Example 617]
9,> 200,COc1cccc2c1cnn2-c1nc([C@@](O)(CNC(=O)c2cc(OC)c3nn(C4CC4)cc3c2)C2CC2)cc2c1OC[C@]2(C)C(N)=O [Example 833]
10,> 200,COc1cc(C(=O)NCC(O)(c2cc3c(c(-c4cc(C(F)(F)F)ncc4Cl)n2)OC[C@]3(C)C(N)=O)C2CC2)cc2cn(C3CC3)nc12 (stereo partly shown) [Example 870]
11,< 200,COc1cc(C(=O)NC[C@](O)(c2cc3c(c(-c4ccnc(C(F)F)c4Cl)n2)OC[C@]3(C)C(N)=O)C(F)(F)F)cc2cn(C(F)F)nc12 [Example 797]
12,> 200,CC(C)c1nccc(-c2nc([C@@](O)(CNC(=O)c3cc(OC4CC4)c4nn(C5CC5)cc4c3)C3CC3)cc3c2OC[C@]3(C)C(N)=O)c1Cl [Example 913]
13,> 200,COc1cc(C(=O)NC[C@](O)(c2cc3c(c(-n4ccc5c(C(F)(F)F)cccc54)n2)OC[C@]3(C)C(N)=O)C2CC2)cc2cn(C3CC3)nc12 [Example 869]
14,< 200,COc1cc(C(=O)NC[C@@](O)(c2ccc(F)cc2)c2cc3c(c(-c4ccnc(C)c4Cl)n2)OC[C@]3(C)C(N)=O)cc2oc(C3CC3)nc12 [Example 649]
15,> 200,COc1cc(C(=O)NC[C@](O)(c2cc3c(c(-c4cccc(C(=O)O)c4Cl)n2)OC[C@]3(C)C(N)=O)C2CC2)cc2cn(C3CC3)nc12 [Example 808]
16,> 200,COc1cc(C(=O)NC[C@](O)(c2cc3c(c(-c4ccnc(C5CCOCC5)c4Cl)n2)OC[C@]3(C)C(N)=O)C2CC2)cc2oc(C3CC3)nc12 [Example 906]
17,> 200,COc1cc(C(=O)NC[C@](O)(c2cc3c(c(-c4ccnc5[nH]ccc45)n2)OC[C@]3(C)C(N)=O)C2CC2)cc2cn(C3CC3)nc12 [Example 728]
18,> 200,COc1cc(C(=O)NC[C@](O)(c2cc3c(c(-c4ccnc5c4OCCO5)n2)OC[C@]3(C)C(N)=O)C2CC2)cc2cn(C3CC3)nc12 [Example 812]
19,< 200,CCc1nccc(-c2nc([C@@](O)(CNC(=O)c3cc(OC)c4nn(C5CC5)cc4c3)C3CC3)cc3c2OC[C@]3(C)C(N)=O)c1Cl [Example 807]
20,> 200,COc1nccc(-c2nc([C@](O)(CNC(=O)c3cc(OC)c4nn(C5CC5)cc4c3)c3cccc(F)c3)cc3c2OC[C@]3(C)C(N)=O)c1Cl [Example 876]
21,< 200,COc1nccc(-c2nc([C@@](O)(CNC(=O)c3cc(OC)c4nn(C5CC5)cc4c3)C3CC3)cc3c2OC[C@]3(C)C(N)=O)c1F [Example 802]
22,> 200,COc1cc(C(=O)NC[C@](O)(c2cc3c(c(-c4ccnc(C(C)C)c4Cl)n2)OC[C@]3(C)C(N)=O)C2CC2)cc2cc(C3CC3)nn12 [Example 910]

# Same assay, conditions: human metapneumovirus; hMPV A2 TN/94-49, LLC-MK2 cells with CP-100-356, Method 2
row,EC50 [nM],SMILES
1,< 200,COc1cc(C(=O)NC[C@@](O)(c2cccc(F)c2)c2cc3c(c(-c4ccnc(C)c4Cl)n2)OC[C@]3(C)C(N)=O)cc2cn(C3(F)CC3)nc12 [Example 539]
2,> 200,COc1cc(F)c(-c2nc([C@@](O)(CNC(=O)c3cc(OC)c4nn(C5(F)CC5)cc4c3)c3ccccc3)cc3c2OC[C@]3(C)C(N)=O)cc1F [Example 363]
3,< 200,COc1cc(C(=O)NC[C@@](O)(c2ccc(F)cc2)c2cc3c(c(-c4ccnc(C(F)(F)F)c4F)n2)OC[C@]3(C)C(N)=O)cc2cn(C(F)F)nc12 [Example 572]
4,< 200,COc1cc(C(=O)NC[C@](O)(c2cc3c(c(-c4ccnc(C(F)(F)F)c4Cl)n2)OC[C@]3(C)C(N)=O)C(F)(F)F)cn2cc(C3CC3)nc12 [Example 598]
5,< 200,Cc1nccc(-c2nc([C@@](O)(CNC(=O)c3cc(OC4CC4)c4nn(C(F)F)cc4c3)C3CC3)cc3c2OC[C@]3(C)C(N)=O)c1Cl [Example 601]
6,< 200,C[C@]1(C(N)=O)COc2c1cc([C@@](O)(CNC(=O)c1ccc3nc(C4CC4)oc3c1)c1ccccc1)nc2-c1cc(C(F)F)c(F)cc1F [Example 311]
7,< 200,COc1cc([C@](O)(CNC(=O)c2cc(OC)c3nn(C4CC4)cc3c2)c2cc3c(c(-c4cccc(Cl)c4Cl)n2)OC[C@]3(C)C(N)=O)ccn1 [Example 494]
8,< 200,Cc1nccc(-c2nc([C@@](O)(CNC(=O)c3cc(OC4CC4)c4nn(C5(F)CC5)cc4c3)C3CC3)cc3c2OC[C@]3(C)C(N)=O)c1Cl [Example 602]
9,< 200,COc1cc(C(=O)NC[C@](O)(c2cc3c(c(-c4ccnc5ccccc45)n2)OC[C@]3(C)C(N)=O)C2CC2)cc2cn(C3CC3)nc12 [Example 430]
10,< 200,COc1nccc(-c2nc([C@@](O)(CNC(=O)c3cc(OC)c4nc(C5CC5)oc4c3)c3ccccc3)cc3c2OC[C@]3(C)C(N)=O)c1Cl [Example 556]
11,< 200,COc1cc(C(=O)NC[C@@](O)(c2cccc(F)c2)c2cc3c(c(-c4ccc5c(c4Cl)OC(F)(F)O5)n2)OC[C@]3(C)C(N)=O)cc2oc(C)nc12 [Example 285]
12,< 200,C[C@]1(C(N)=O)COc2c1cc([C@@](O)(CNC(=O)c1cc(C(F)F)c3nn(C4CC4)cc3c1)c1ccccc1)nc2-c1cc(Cl)c(F)cc1F [Example 229]
13,< 200,COc1cc(C(=O)NC[C@@](O)(c2ccnc(C#N)c2)c2cc3c(c(-c4cc(Cl)c(F)cc4F)n2)OC[C@]3(C)C(N)=O)cc2cn(C3CC3)nc12 [Example 501]
14,< 200,C[C@]1(C(N)=O)COc2c1cc([C@@](O)(CNC(=O)c1cc(Cl)c3nn(C4CC4)cc3c1)C1(F)CC1)nc2-c1ccnc(Cl)c1Cl [Example 523]
15,> 200,C[C@]1(C(N)=O)COc2c1cc([C@@](O)(CNC(=O)c1cc(OC3CC3)c3nc(C4CC4)sc3c1)c1ccccc1)nc2-c1cc(Cl)c(F)cc1F [Example 190]
16,< 200,COc1cc(C(=O)NCC(O)(c2ccccc2)c2cc3c(c(-c4ccc(F)c(Cl)c4)n2)OC[C@]3(C)C(N)=O)cc2cn(C3(F)CC3)nc12 (stereo partly shown) [Example 362]
17,> 200,COc1cc(C(=O)NC[C@](O)(c2cc3c(c(-n4ccc5ccncc54)n2)OC[C@]3(C)C(N)=O)C2CC2)cc2cn(C3CC3)nc12 [Example 448]
18,< 200,COc1cc(C(=O)NC[C@](O)(c2cc3c(c(-c4c(F)cncc4F)n2)OC[C@]3(C)C(N)=O)C2CC2)cc2cn(C3CC3)nc12 [Example 433]
19,> 200,COc1cc(C(=O)NCC(O)(c2ccccc2)c2cc3c(c(-c4ccc(F)cc4)n2)OC[C@]3(C)C(N)=O)cc2cn(C3(F)CC3)nc12 (stereo partly shown) [Example 361]
20,< 200,COc1nccc(-c2nc([C@@](O)(CNC(=O)c3cc(OC)c4nn(C5(F)CC5)cc4c3)c3cccc(F)c3)cc3c2OC[C@]3(C)C(N)=O)c1Cl [Example 559]
21,< 200,C[C@]1(C(N)=O)COc2c1cc([C@@](O)(CNC(=O)c1cc(OCCO)c3nn(C4CC4)cc3c1)C1CC1)nc2-c1cc(Cl)c(F)cc1F [Example 126]
22,< 200,COc1cc(C(=O)NC[C@@](O)(c2cccc(F)c2)c2cc3c(c(-c4cccc(Cl)c4Cl)n2)OC[C@]3(C)C(N)=O)cn2cc(C3CC3)nc12 [Example 337]
23,< 200,COc1cc(C(=O)NC[C@@](O)(c2ccccc2)c2cc3c(c(-c4cc(Cl)ccc4F)n2)OC[C@]3(C)C(N)=O)cc2oc(C3CC3)nc12 [Example 331]
24,> 200,C[C@]1(C(N)=O)COc2c1cc([C@@](O)(CNC(=O)c1ccc3nc(C4CCC4)oc3c1)c1ccccc1)nc2-c1cc(Cl)c(F)cc1F [Example 221]
25,< 200,COc1cc(C(=O)NC[C@@](O)(c2cccc(S(C)(=O)=O)c2)c2cc3c(c(-c4cc(Cl)c(F)cc4F)n2)OC[C@]3(C)C(N)=O)cc2cn(C3CC3)nc12 [Example 483]
26,< 200,[2H]C([2H])([2H])NC(=O)[C@@]1(C)COc2c1cc([C@@](O)(CNC(=O)c1cc(OC)c3nc(C4CC4)oc3c1)c1ccccc1)nc2-c1cc(Cl)c(F)cc1F [Example 110]
27,< 200,C[C@]1(C(N)=O)COc2c1cc([C@@](O)(CNC(=O)c1cc(OC3CC3)n3nc(C4CC4)cc3c1)c1cccc(F)c1)nc2-c1cccc(Cl)c1Cl [Example 335]
28,< 200,C[C@]1(C(N)=O)COc2c1cc([C@@](O)(CNC(=O)c1cc(Cl)c3nn(C4CC4)cc3c1)C1CC1)nc2-c1cc(C(F)(F)F)ncc1F [Example 353]
29,> 200,COc1cc(C(=O)NC[C@@](O)(c2ccccc2)c2cc3c(c(-c4cc(Cl)c(F)cc4F)n2)OC[C@]3(C)C(N)=O)cc2cc(Cl)c(F)nc12 [Example 342]
30,> 200,COc1cc(C(=O)NC[C@@](O)(c2cccc(F)c2)c2cc3c(c(-c4ccc(C(C)(C)O)cc4)n2)OC[C@]3(C)C(N)=O)cc2cn(C3(F)CC3)nc12 [Example 397]
